From patent US20070112176A1, “Lipid membrane structure containing anti-mt-mmp monoclonal antibody” (DAIICHI PHARMACEUTICAL CO., LTD., priority 2003, published 2007)

Tested on: HT1080 cells
Experiment: Cytostatic test of liposomes with various antibody binding ratios, Test Example 6
Type: cell-based, human
Conditions: control group; free DOX 100 μg/mL, used as start value
Procedure: According to the method described in Test Example 2-1), the cytostatic ability of various antibody-binding liposomes was evaluated by using the HT1080 cells. The cells were adhered to a 96-well plate, then added with anti-MT1-MMP monoclonal antibody (clone number: 222-1D8)-binding and anticancer agent-encapsulating liposomes (Fab′(222-1D8)-DOX-LP), and cultured for 1 hour. After the culture, the cells were washed, added with a fresh medium, and further cultured for 24 hours. After the cells were washed and cultured for 24 hours, a cell counting assay was performed, and A450 serving as an index of viable cell count was plotted. Means±S.D. (n=4) was indicated for each group. As control, only the medium (control), anticancer agent-encapsulating liposomes not bound with antibody (DOX-LP (Preparation Example (11)) or the anticancer agent alone (free DOX) was added instead of Fab′(222-1D8)-DOX-LP. A group in which only the medium was similarly treated without adding the cells was used as a blank. It was confirmed by multiple times of experiments that the start value used in the calculation of inhibitory rate and the like in Test Example 2 was not substantially different from the absorbance obtained with 100 μg/mL of DOX alone (free DOX) used as the sample, and therefore the value obtained for the 100 μg/mL free DOX group was used as the start value. […]

COc1cccc2c1C(=O)c1c(O)c3c(c(O)c1C2=O)C[C@@](O)(C(=O)CO)C[C@@H]3O[C@H]1C[C@H](N)[C@H](O)[C@H](C)O1 [Free DOX, doxorubicin]
Cytostatic ratio for HT1080 cells: 100%
